{"source": "paper PMC9496453", "about": "(2022)", "key": {"[1]": {"test_system": "OTC5 (DNA, aptamer) GACGACATTCCGTTGATCTCTCCCTTTTGGGTTGGTGTCGTC", "assay": "intrinsic fluorescence enhancement titration", "settings": "50 mM NaCl, 2 mM MgCl2, 10 mM Tris HCl pH 8.3, binding lost without Mg2+"}, "[2]": {"test_system": "OTC5 (DNA, aptamer) GACGACATTCCGTTGATCTCTCCCTTTTGGGTTGGTGTCGTC", "assay": "ITC", "settings": "2 mM Mg2+; 10 mM Tris pH 8.3; 0.2 μM at pH 6.0 (10 mM MES)"}}}
{"smiles": "CN(C)[C@@H]1C(=O)C(C(N)=O)=C(O)[C@@]2(O)C(=O)C3=C(O)c4c(O)cccc4[C@@](C)(O)[C@H]3C[C@@H]12", "values": [{"measurement": "KD", "setting": "[1]; 0.36 µM at acidic pH (printed 6.3)", "result": 160, "unit": "nM"}]}
{"smiles": "CN(C)[C@@H]1C(=O)C(C(N)=O)=C(O)[C@@]2(O)C(=O)C3=C(O)c4c(O)cccc4[C@@](C)(O)[C@H]3[C@H](O)[C@@H]12", "values": [{"measurement": "KD", "setting": "[1]; 0.14 µM at acidic pH (printed 6.3)", "result": 60, "unit": "nM"}, {"measurement": "KD", "setting": "[2]", "result": 30, "unit": "nM"}]}
{"smiles": "C[C@H]1c2cccc(O)c2C(=O)C2=C(O)[C@]3(O)C(=O)C(C(N)=O)=C(O)[C@@H](N(C)C)[C@@H]3[C@@H](O)[C@@H]21", "values": [{"measurement": "KD", "setting": "[1]; 0.39 µM at pH 6.0", "result": 240, "unit": "nM"}]}
